# Source: US8969408B2, “Use of lignan-type compounds or extract of nutmeg or aril of nutmeg comprising the same” (Biocare Co., Ltd., priority 2007, dated 2015)
# Experiments:
# Assay type in all cases: cell-based
# Melan-a cells = assay: Melanin production inhibition activity in Melan-a cells
# Experimental: Specifically, Melan-a cells were placed on a 6-well plate (melanin quantitated) at a concentration of 2×10^5 cells/mL (final volume=3 mL) and cultured in a 10% CO2 incubator (MCO-20AIC, Sanyo) at 37° C., using RPMI 1640 containing 10% FBS and 2 μM TPA (phorbol-12-myristate 13-acetate), for 24 hours. After removing the culture medium, the nutmeg ethanol extract prepared in Example 1-1 was added to RPMI 1640 medium and treated every day for 3 days. 5 days later, the culture medium was removed from the 6-well plate and, after treating with 0.25% trypsin-EDTA solution (Sigma Chemical Co.), cell pellets were collected and transferred to a 1.5 mL tube. After centrifuging at 10,000 rpm for 10 minutes, the supernatant was removed. Thus obtained pellets were dried at 60° C. and added to 100 μL of 1N NaOH in order to dissolve melanin contained in the cells. The solution was diluted with PBS and absorbance was measured at 475 nm using an ELISA reader. Melanin content was calculated according to the following Equation 1. The group to which the nutmeg ethanol extract was not used served as the control group. [formula] […] Melan-a cells were treated with the […] isolated in Example 2-1, and the degree of melanin production was measured in the same manner as Test Example 1-1.
# tyrosinase [1] = target: T1, tyrosinase (Mus musculus, UniProt P11344); assay: Tyrosinase inhibition activity (DOPA chrome production) in treated Melan-a cells
# T1 construct: endogenous in cells; host or cells: Melan-a cells (melanocytes)
# T1 sequence (P11344 19-533): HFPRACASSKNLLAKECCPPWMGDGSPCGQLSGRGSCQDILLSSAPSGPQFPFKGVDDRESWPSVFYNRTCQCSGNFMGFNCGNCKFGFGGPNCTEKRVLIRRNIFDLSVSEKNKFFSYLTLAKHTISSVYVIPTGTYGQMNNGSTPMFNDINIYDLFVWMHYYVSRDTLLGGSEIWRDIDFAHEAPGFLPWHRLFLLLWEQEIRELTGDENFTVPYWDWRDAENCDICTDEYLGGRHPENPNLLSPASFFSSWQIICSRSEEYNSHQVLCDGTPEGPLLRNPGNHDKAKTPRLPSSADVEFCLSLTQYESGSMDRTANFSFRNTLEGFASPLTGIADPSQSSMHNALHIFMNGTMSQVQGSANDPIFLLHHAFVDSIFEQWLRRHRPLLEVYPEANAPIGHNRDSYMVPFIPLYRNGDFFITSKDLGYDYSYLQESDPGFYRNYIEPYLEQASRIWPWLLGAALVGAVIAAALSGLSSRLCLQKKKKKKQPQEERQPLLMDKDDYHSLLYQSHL
# Experimental: 5 days later, the culture medium was removed from the 6-well plate and, after treating with 0.25% trypsin-EDTA solution (Sigma Chemical Co.), cell pellets were collected and transferred to a 1.5 mL tube. After adding 200 μL of phosphate buffer (pH 6.8) followed by centrifuging at 10,000 rpm for 10 minutes, the supernatant was collected. 150 μL of the supernatant was moved to a 96-well microplate and 50 μL of catechol was added. After culturing at 37° C. for 30 minutes, the amount of produced DOPA chrome was determined by measuring absorbance at 490 nm using a microplate reader.
# [2] = tested on: tyrosinase-related protein 1 (TRP-1); assay: Inhibition of expression of TRP-1 (Western blotting), Melan-a cells; settings: result in words
# Experimental: (§1) Western blotting and Bradford protein assay were carried out in order to investigate if the nutmeg ethanol extract prepared in Example 1-1 inhibits the expression of tyrosinase, tyrosinase-related protein 1 (TRP-1) and tyrosinase-related proteins 2 (TRP-2).
# (§2) Specifically, proteins were extracted from the cells treated in Test Example 1-1 with the nutmeg ethanol extract and subjected to electrophoresis in 10% SDS-polyacrylamide gel. Then, the proteins were transferred from the gel to a nitrocellulose membrane. After treating with 5% skim milk at room temperature for 1 hour, primary antibodies of tyrosinase, TRP-1 and TRP-2 diluted in 5% skim milk to 1:1000 were added and allowed to be incubated at room temperature for 2 hours. After the incubation, the membrane was washed with Tris-buffer saline Tween 20(TBST) twice, for 10 minutes per each, while shaking. Secondary antibodies which recognize the primary antibodies, diluted in 5% skim milk to 1:1000, were added and allowed to be incubated at room temperature for 1 hour. As for the primary antibodies, the membrane was washed with TBST three times, for 10 minutes per each, while shaking, and subjected to development by chemiluminescence.
# (§3) Melan-a cells were treated with the macelignan isolated in Example 2-1, and it was investigated if the expression of tyrosinase, TRP-1 and TRP-2 was inhibited, in the same manner as Test Example 3-1.
# [3] = tested on: tyrosinase-related proteins 2 (TRP-2); assay: Inhibition of expression of TRP-2 (Western blotting), Melan-a cells; settings: result in words
# Experimental: as §1, §2, §3
# tyrosinase [4] = assay: Inhibition of expression of tyrosinase (Western blotting), Melan-a cells; settings: result in words
# Experimental: as §1, §2, §3
structure (smiles),measurement,setting,value
"C/C=C/c1cc(OC)c2c(c1)[C@@H](C)[C@H](c1ccc3c(c1)OCO3)O2 [licarin E, 5-(7-methoxy-3-methyl-5-propenyl-2,3-dihydro-benzofuran-2-yl)-benzo[1,3]dioxole]",inhibition at 50 µM,Melan-a cells; 50 μM,~58.4%
same,DOPA chrome production inhibition,tyrosinase [1]; concentration not given,about 60.04%
"COc1cc(C[C@H](C)[C@H](C)Cc2ccc3c(c2)OCO3)ccc1O [macelignan, 4-((2S,3R)-4-benzo[1,3]dioxol-5-yl-2,3-dimethyl-butyl)-2-methoxyphenol]","expression of TRP-1 (FIG. 5, FIG. 6)",[2],could inhibit the expression
same,"expression of TRP-2 (FIG. 5, FIG. 6)",[3],could inhibit the expression
same,"melanin production inhibition activity (FIG. 1, FIG. 2)","Melan-a cells; result in words, P<0.01",superior melanin production inhibition activity
same,"DOPA chrome production / tyrosinase activity (FIG. 3, FIG. 4)","tyrosinase [1]; result in words, P<0.01",superior DOPA chrome production inhibition activity
same,"expression of tyrosinase (FIG. 5, FIG. 6)",tyrosinase [4],could inhibit the expression
